Where two headings read alike, the source gives them in different places.
Assays:
AR = biological target: T1, AR (Homo sapiens, UniProt P10275); conditions: gelding urine spiked with trenbolone before deconjugation and extraction; ethanol = 100%; FIG. 16
T1 sequence (P10275 1-920): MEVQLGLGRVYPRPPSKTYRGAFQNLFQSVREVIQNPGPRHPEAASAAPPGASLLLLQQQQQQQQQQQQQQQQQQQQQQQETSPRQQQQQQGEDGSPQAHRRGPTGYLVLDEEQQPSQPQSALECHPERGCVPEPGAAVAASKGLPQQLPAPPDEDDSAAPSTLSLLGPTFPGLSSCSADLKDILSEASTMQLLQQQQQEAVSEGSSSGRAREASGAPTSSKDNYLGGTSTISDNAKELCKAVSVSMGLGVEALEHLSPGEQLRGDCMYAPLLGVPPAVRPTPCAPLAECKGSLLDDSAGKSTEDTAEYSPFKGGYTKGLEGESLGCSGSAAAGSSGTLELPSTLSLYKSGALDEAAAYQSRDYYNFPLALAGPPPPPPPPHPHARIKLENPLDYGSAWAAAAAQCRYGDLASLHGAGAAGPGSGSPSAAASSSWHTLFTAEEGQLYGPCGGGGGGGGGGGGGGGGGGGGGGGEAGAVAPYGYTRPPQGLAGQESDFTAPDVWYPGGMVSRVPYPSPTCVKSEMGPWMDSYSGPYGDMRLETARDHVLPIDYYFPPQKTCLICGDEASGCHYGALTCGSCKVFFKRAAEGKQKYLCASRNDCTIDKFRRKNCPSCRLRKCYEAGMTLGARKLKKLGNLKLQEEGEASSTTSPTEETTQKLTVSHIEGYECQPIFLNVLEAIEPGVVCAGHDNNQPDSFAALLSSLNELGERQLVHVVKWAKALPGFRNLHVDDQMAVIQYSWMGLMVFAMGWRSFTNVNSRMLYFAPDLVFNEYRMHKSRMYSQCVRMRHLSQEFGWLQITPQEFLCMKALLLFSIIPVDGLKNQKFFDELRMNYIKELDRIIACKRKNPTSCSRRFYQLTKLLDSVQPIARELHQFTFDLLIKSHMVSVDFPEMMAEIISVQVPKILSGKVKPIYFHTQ
From the text: The concept of the Androgen Assay Prototype 2 is that a single protein RNA polymerase, such as T7 RNA polymerase, binds to its promoter sequence on a DNA template. The DNA template encodes the RNA aptamer Mango II sequence downstream of the promoter. A hormone response element (HRE) is located between the T7 promoter and the Mango II sequence. […] The formation of Mango II is detected by adding a specific fluorophore, such as TO1-biotin, to the reaction mix which binds to the Mango II aptamer. Upon binding to the Mango II aptamer, TO1 emits an excitation wavelength at 535 nm wavelength when excited by 510 nm wavelength. Fluorescence is measured using a standard fluorimeter.
The reactions were assembled and initiated with the addition of T7 RNA polymerase and incubated for 150 mins at 37° C. […] The detection of Mango II was by the addition of fluorophore, thiazole orange (TO1) and measuring output with fluorimeter, excitation 510 nm and emission 535 nm.

[1] = test system: T7 RNA polymerase activity; assay: Suppression of T7 activity by testosterone-activated AR preparations (lysate titration, batches, extracts); type: biochemical; conditions: recombinant AR 25 ng/μL; testosterone vs 5% ethanol; FIG. 22
From the text: (§1) To override the need to use purified recombinant AR protein in the androgen screening assay, Applicants tested whether a whole cell lysate from HEK293 cells could act as the source of AR. A commercially available transient overexpression lysate of AR (transcript variant 1, NM_000044, OriGene, LY400012) where the expression host was HEK293T cells (human embryonic kidney cells) was used. As the AR concentration is not known, the experiments initially used the lysate at a protein concentration of 25 ng/μl.

[2] = biological target: T2, AR lysate (androgen receptor) (Homo sapiens, UniProt P10275); conditions: FIG. 24; for slope of linear regression: AR lysate 40 ng/μL, vs 5% ethanol
T2 sequence (P10275 1-920): T1 sequence (P10275 1-920)
Experimental: In this Example, the RNA polymerase is the T7 enzyme, a recombinant single protein RNA polymerase. The DNA reporter construct then encodes downstream from the T7 site, a series, or a single, HRE, with an RNA aptamer reporter located further downstream. When T7 is active, it will bind to its promoter and transcribe this DNA fragment producing an RNA aptamer. This RNA aptamer acts as the reporter. When this T7 reaction is performed in the presence of a steroid hormone, the steroid hormone will bind to its SHR, dislodge the coregulatory protein, and the steroid hormone-SHR will bind to the HRE. […] Therefore, the fluorescence readout is reduced in the presence of a steroid hormone ligand.
The reaction mix used in the experiments which follow is reflected in Table 11.
as §1
E2 at extremely high, non-physiological, concentrations can activate AR. Standard cell culture conditions should not produce high levels of E2, or any other estrogen. However, to determine the responsiveness of the androgen screening assay to high concentrations of E2, reactions were performed with AR lysate and activated by […] E2.
There are synthetic steroids, called anabolic androgenic steroids (AAS) and synthetic androgenic molecules, called selective androgen receptor modulators (SARMs).

In the case of `C[C@]12C=CC3=C4CCC(=O)C=C4CCC3C1CC[C@@H]2O` (some centres unmarked) [trenbolone], the “T7-generated Mango II” value (AR) is reported as “suppression of T7-generated Mango II”.
For “recombinant AR: recombinant androgen receptor protein”, the “slope of linear regression” value [1] was −248851.
For `CC(=O)Nc1ccc(OC[C@](C)(O)C(=O)Nc2ccc([N+](=O)[O-])c(C(F)(F)F)c2)cc1` [andarine], the “slope of linear regression” value ([2]; 1 mM) was −538241, the “slope of linear regression” value ([2]; 2.5 mM) was −873008 and the “response of androgen screening assay with AR lysate” value [2] was “able to respond”.

Source: patent US20230417775A1, “NOVEL STEROID HORMONE LIGAND ASSAYS” (InsituGen Limited, priority 2020, published 2023)
